Literature values, collected in article PMC12030253, “New Temporin A Analogues Modified in Positions 1 and 10—Synthesis and Biological Studies” (Pharmaceutics, 2025).
Read-outs that look alike come from different tables or passages of the source. Ends that are not written are not given here.

Key:
Parameters in all cases: method as in PMID 38931840
[1] = system: BALB 3T3 cells; conditions: cited from earlier work; for CC50: BALB 3T3 cells, NRU
[2] = system: MCF-12F cells; conditions: MTT, 72 h, non-tumorigenic cells; read-out: Mean IC50 ± SD MCF-12F; cited from earlier work
[3] = system: MCF-7 cells; conditions: cited from earlier work
[4] = system: MDA-MB-231 cells; conditions: cited from earlier work
[5] = system: Bacillus subtilis NBIMCC 3562; conditions: cited from earlier work; for Percentage-based inhibition compared to antibiotic, B. subtilis 3562: chloramphenicol taken as 100%; for Inhibition zone B. subtilis 3562: 20 µL per disk
[6] = system: Arthrobacter oxydans NBIMCC 9333; conditions: cited from earlier work; for Percentage-based inhibition compared to antibiotic, A. oxydans 9333: gentamicin taken as 100%; for Inhibition zone A. oxydans 9333: 20 µL per disk
[7] = system: Escherichia coli NBIMCC 8785; conditions: 20 µL per disk, cited from earlier work
[8] = system: Pseudomonas aeruginosa NBIMCC 3700; conditions: cited from earlier work; for Percentage-based inhibition compared to antibiotic, P. aeruginosa 3700: gentamicin taken as 100%; for Inhibition zone P. aeruginosa 3700: 20 µL per disk
[9] = system: Bacillus subtilis NBIMCC 3562; conditions: broth dilution, 0-320 µg/mL, 24 h; cited from earlier work
[10] = system: Escherichia coli NBIMCC 8785; conditions: broth dilution, 0-320 µg/mL, 24 h; cited from earlier work
[11] = system: Arthrobacter oxydans NBIMCC 9333; conditions: broth dilution, 0-320 µg/mL, 24 h; cited from earlier work
[12] = system: Pseudomonas aeruginosa NBIMCC 3700; conditions: broth dilution, 0-320 µg/mL, 24 h; cited from earlier work
[13] = system: Candida albicans NBIMCC 74; conditions: broth dilution, 0-320 µg/mL, 24 h; cited from earlier work

FLPLIGRVL-S-GILNH2 (FLPLIGRVLSGIL-NH2) [DTA, parent peptide Temporin A, C-terminal amide]
CC50 ([1]; irradiated 2.4 J/cm^2, read-out: Mean CC50 ± SD +Irr): 105 ± 4.88 µM
CC50 ([1]; without irradiation, read-out: Mean CC50 ± SD −Irr): 106 ± 4.18 µM
PIF (Photo-Irritation Factor) ([1]; PIF < 2 not phototoxic): 1.01
IC50 [2]: 139 ± 8.36 µM
IC50 ([3]; MTT, 72 h, read-out: Mean IC50 ± SD MCF-7): 73.2 ± 3.36 µM
Selectivity Index (SI) MCF-7 ([3]; SI = IC50 (MCF-12F)/IC50 (MCF-7)): 1.90
IC50 ([4]; MTT, 72 h, read-out: Mean IC50 ± SD MDA-MB-231): 115 ± 4.04 µM
Selectivity Index (SI) MDA-MB-231 ([4]; SI = IC50 (MCF-12F)/IC50 (MDA-MB-231)): 1.20
Percentage-based inhibition compared to antibiotic, B. subtilis 3562 ([5]; 1.4 mg/mL): 33.8%
Percentage-based inhibition compared to antibiotic, B. subtilis 3562 ([5]; 10 mg/mL): 33.8%
Inhibition zone B. subtilis 3562 ([5]; peptide 1.4 mg/mL): 8.8 ± 0.3 mm
Inhibition zone B. subtilis 3562 ([5]; peptide 10 mg/mL): 8.8 ± 0.8 mm
Percentage-based inhibition compared to antibiotic, A. oxydans 9333 ([6]; 1.4 mg/mL): 37.8%
Percentage-based inhibition compared to antibiotic, A. oxydans 9333 ([6]; 10 mg/mL): 53.9%
Inhibition zone A. oxydans 9333 ([6]; peptide 1.4 mg/mL): 6.8 ± 0.3 mm
Inhibition zone A. oxydans 9333 ([6]; peptide 10 mg/mL): 9.7 ± 0.6 mm
Inhibition zone E. coli 8785 ([7]; peptide 1.4 mg/mL): 0 mm
Inhibition zone E. coli 8785 ([7]; peptide 10 mg/mL): 0 mm
Percentage-based inhibition compared to antibiotic, P. aeruginosa 3700 ([8]; 1.4 mg/mL): 45.9%
Percentage-based inhibition compared to antibiotic, P. aeruginosa 3700 ([8]; 10 mg/mL): 54.7%
Inhibition zone P. aeruginosa 3700 ([8]; peptide 1.4 mg/mL): 7.8 ± 0.3 mm
Inhibition zone P. aeruginosa 3700 ([8]; peptide 10 mg/mL): 9.3 ± 0.6 mm
MIC B. subtilis 3562 [9]: 80 µg/mL
MIC E. coli 8785 [10]: 320 µg/mL
MIC A. oxydans 9333 [11]: 80 µg/mL
MIC P. aeruginosa 3700 [12]: 320 µg/mL
MIC C. albicans 74 [13]: 320 µg/mL
